For data set [1], the system named is Puccinia recondita f. Sp. Tritici. As to the kind of experiment: Puccinia recondita f. sp. tritici / wheat / leaf disc curative (brown rust). The class given is in vivo. Particulars: foliar, 200 ppm in the applied formulation, wheat leaf segments cv. Kanzler, applied 1 day after inoculation, assessed 6 to 8 days after application, read-out: disease control compared to untreated control leaf disks. The protocol:
(§1) Leaf disks or leaf segments of various plant species are cut from plants grown in a greenhouse. The cut leaf disks or segments are placed in multiwell plates (24-well format) onto water agar. The leaf disks are sprayed with a test solution before (preventative) or after (curative) inoculation. Compounds to be tested are prepared as DMSO solutions (max. 10 mg/ml) which are diluted to the appropriate concentration with 0.025% Tween20 just before spraying. The inoculated leaf disks or segments are incubated under defined conditions (temperature, relative humidity, light, etc.) according to the respective test system. A single evaluation of disease level is carried out 3 to 14 days after inoculation, depending on the pathosystem. Percent disease control relative to the untreated check leaf disks or segments is then calculated.
Wheat leaf segments cv. Kanzler are placed on agar in multiwell plates (24-well format). The leaf segments are then inoculated with a spore suspension of the fungus. Plates were stored in darkness at 19° C. and 75% relative humidity. The formulated test compound diluted in water was applied 1 day after inoculation. The leaf segments were incubated at 19° C. and 75% relative humidity under a light regime of 12 hours light/12 hours darkness in a climate cabinet and the activity of a compound was assessed as percent disease control compared to untreated when an appropriate level of disease damage appears in untreated check leaf segments (6 to 8 days after application).
The following compounds at 200 ppm in the applied formulation give at least 80% disease control in this test when compared to untreated control leaf disks under the same conditions, which show extensive disease development.

Data set [2] deals with Glomerella lagenarium (Colletotrichum lagenarium). As to the kind of experiment: Glomerella lagenarium (Colletotrichum lagenarium) liquid culture / cucumber / preventative (anthracnose). Particulars: Colletotrichum orbiculare; 20 ppm in the applied formulation; liquid culture in PDB, 24° C.; 3 to 4 days after application; read-out: disease control compared to untreated control (inhibition of growth measured photometrically). Type of data set: cell-based. The method, boiled down:
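Test compound in DMSO is placed in a microtiter plate, then potato dextrose broth containing conidia from cryogenic storage is added. Incubation runs at 24° C., and growth inhibition is read photometrically after 3 to 4 days.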

For data set [3], the system named is Phakopsora pachyrhizi. As to the kind of experiment: Phakopsora pachyrhizi / soybean / leaf disc preventative (Asian soybean rust). Type of data set: in vivo. Particulars: foliar, 200 ppm in the applied formulation, soybean leaf disks, inoculated one day after application, assessed 12 to 14 days after application, read-out: disease control compared to untreated control leaf disks. The method, boiled down:
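Read-out is percent disease control relative to untreated check discs, assessed once untreated discs show adequate disease, 12 to 14 days after application. Compounds, tested at 200 ppm in the applied formulation, are sprayed onto soybean leaf discs one day before inoculation with a spore suspension.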

In data set [4] the test system is Puccinia recondita f. Sp. Tritici. As to the kind of experiment: Puccinia recondita f. sp. tritici / wheat / leaf disc preventative (brown rust). Type of data set: in vivo. Particulars: foliar, 200 ppm in the applied formulation, wheat leaf segments cv. Kanzler, inoculated 1 day after application, assessed 7 to 9 days after application, read-out: disease control compared to untreated control leaf disks. How it is done:
as §1, with “calculated. Wheat leaf segments cv. Kanzler were placed on agar in multiwell plates (24-well format) and sprayed with the formulated test compound diluted in water. The leaf disks were inoculated with a spore suspension of the fungus 1 day after application. The inoculated leaf segments were incubated at 19° C. and 75% relative humidity (rh) under a light regime of 12 hours light/12 hours darkness in a climate cabinet and the activity of a compound was assessed as percent disease control compared to untreated when an appropriate level of disease damage appears in untreated check leaf segments (7 to 9 days after application). The following compounds at 200 ppm in the applied formulation give at least 80% disease control in this test when compared to untreated control leaf disks under the same conditions, which show extensive disease development.” for “calculated.”

For 18 compounds, pest or weed control, inhibition and melting point results are on record in US20180319753A1, “MICROBIOCIDAL OXADIAZOLE DERIVATIVES” (SYNGENTA PARTICIPATIONS AG, priority 2015, published 2018).

Where “and” joins values, the source holds several entries; their conditions need not be identical. Equal entries are not always repeated. Where only a bound is given, the exact number is not on record here.

A word on the inhibition: it is how much of the control response was suppressed. Consider `FC(F)(F)c1nc(-c2ccc(SCCc3ccccc3)cc2)no1` [Compound 1.5, 3-[4-(2-phenylethylsulfanyl)phenyl]-5-(trifluoromethyl)-1,2,4-oxadiazole], for which the pest or weed control at 200 ppm in data set [1], in data set [3] and in data set [4] was not below 80% each time. For the same compound, the inhibition at 20 ppm in data set [2] was not below 80%.

What is called melting point is the temperature of the solid-liquid transition. Regarding `FC(F)(F)c1nc(-c2ccc(Sc3ccccc3)nc2)no1` [Compound 1.7, 3-(6-phenylsulfanyl-3-pyridyl)-5-(trifluoromethyl)-1,2,4-oxadiazole], the melting point lay in the range of 124 to 129 °C. The pest or weed control at 200 ppm in data set [1] is not below 80%. In addition, the inhibition at 20 ppm in data set [2] is not below 80%. The pest or weed control at 200 ppm in data set [3] was not below 80%.

The compound `Fc1cccc(F)c1Sc1ccc(-c2noc(C(F)(F)F)n2)cc1` [Compound 1.12, 3-[4-(2,6-difluorophenyl)sulfanylphenyl]-5-(trifluoromethyl)-1,2,4-oxadiazole] returned a melting point of 75 to 85 °C. The pest or weed control at 200 ppm in data set [1] was not below 80%. Also, in data set [2], the inhibition at 20 ppm is not below 80%. Besides, the pest or weed control at 200 ppm in data set [3] is not below 80%.

Regarding `Fc1ccccc1Sc1ccc(-c2noc(C(F)(F)F)n2)cc1` [Compound 1.14, 3-[4-(2-fluorophenyl)sulfanylphenyl]-5-(trifluoromethyl)-1,2,4-oxadiazole], the melting point was 35 to 38 °C. Further, in data set [1], the pest or weed control at 200 ppm was not below 80%. Besides, the pest or weed control at 200 ppm in data set [3] was not below 80%. For the same compound, the pest or weed control at 200 ppm in data set [4] is not below 80%.

The compound `Fc1ccccc1SCc1ccc(-c2noc(C(F)(F)F)n2)cc1` [Compound 1.15, 3-[4-[(2-fluorophenyl)sulfanylmethyl]phenyl]-5-(trifluoromethyl)-1,2,4-oxadiazole] had a melting point of 56 to 61 °C. Besides, in data set [1], the pest or weed control at 200 ppm is not below 80%. Besides, in data set [3], the pest or weed control at 200 ppm is not below 80%.

The compound `FC(F)(F)c1nc(-c2ccc(CSc3ccccc3)nc2)no1` [Compound 1.23, 3-[6-(phenylsulfanylmethyl)-3-pyridyl]-5-(trifluoromethyl)-1,2,4-oxadiazole] registered a melting point of 71 to 78 °C. Moreover, in data set [1], the pest or weed control at 200 ppm was not below 80%. Moreover, the inhibition at 20 ppm in data set [2] was not below 80%. The pest or weed control at 200 ppm in data set [4] is not below 80%.

Consider `[O-][S+](c1ccc(F)cc1)c1ccc(-c2noc(C(F)(F)F)n2)cc1` (centres unmarked) [Compound 2.13, 3-[4-(4-fluorophenyl)sulfinylphenyl]-5-(trifluoromethyl)-1,2,4-oxadiazole], for which the melting point fell in the range of 94 to 99 °C. In addition, in data set [1], the pest or weed control at 200 ppm was not below 80%. The pest or weed control at 200 ppm in data set [3] was not below 80%. For the same compound, in data set [4], the pest or weed control at 200 ppm is not below 80%.

`COc1ccccc1[S+]([O-])c1ccc(-c2noc(C(F)(F)F)n2)cc1` (centres unmarked) [Compound 2.15, 3-[4-(2-methoxyphenyl)sulfinyl-phenyl]-5-(trifluoromethyl)-1,2,4-oxadiazole]: the melting point was in the range of 105 to 115 °C. In addition, the pest or weed control at 200 ppm in data set [1] was not below 80%. In data set [3], the pest or weed control at 200 ppm is not below 80%. Besides, in data set [4], the pest or weed control at 200 ppm was not below 80%.

Take `CC(C)(C)[S+]([O-])c1ccc(-c2noc(C(F)(F)F)n2)cc1` (centres unmarked) [Compound 2.19, 3-(4-tert-butylsulfinylphenyl)-5-(trifluoromethyl)-1,2,4-oxadiazole]: the pest or weed control at 200 ppm in data set [1], in data set [3] and in data set [4] was not below 80% in each case. In addition, the inhibition at 20 ppm in data set [2] was not below 80%.

Compound `CCC(C)C[S+]([O-])c1ccc(-c2noc(C(F)(F)F)n2)cc1` (centres unmarked) [Compound 2.22, 3-[4-(2-methylbutylsulfinyl)phenyl]-5-(trifluoromethyl)-1,2,4-oxadiazole] displayed a melting point of 38 to 43 °C. The pest or weed control at 200 ppm in data set [1] is not below 80%. Also, the inhibition at 20 ppm in data set [2] was not below 80%. Besides, in data set [3], the pest or weed control at 200 ppm was not below 80%.

Consider `Cc1ccccc1[S+]([O-])c1ccc(-c2noc(C(F)(F)F)n2)cc1` (centres unmarked) [Compound 2.24, 3-[4-(o-tolylsulfinyl)phenyl]-5-(trifluoromethyl)-1,2,4-oxadiazole], for which the melting point fell in the range of 100 to 103 °C. Moreover, the pest or weed control at 200 ppm in data set [1] was not below 80%. Moreover, in data set [2], the inhibition at 20 ppm was not below 80%. The pest or weed control at 200 ppm in data set [4] was not below 80%.

Consider `Cc1ccccc1[S+]([O-])c1ccc(-c2noc(C(F)(F)F)n2)cn1` (centres unmarked) [Compound 2.25, 3-[6-(o-tolylsulfinyl)-3-pyridyl]-5-(trifluoromethyl)-1,2,4-oxadiazole], for which the melting point lay in the range of 103 to 105 °C. In data set [2], the inhibition at 20 ppm is not below 80%. For the same compound, the pest or weed control at 200 ppm in data set [3] is not below 80%. Besides, the pest or weed control at 200 ppm in data set [4] was not below 80%.

`[O-][S+](c1ccc(-c2noc(C(F)(F)F)n2)cn1)c1ccccc1F` (centres unmarked) [Compound 2.26, 3-[6-(2-fluorophenyl)sulfinyl-3-pyridyl]-5-(trifluoromethyl)-1,2,4-oxadiazole] showed a melting point of 92 to 95 °C. In addition, the pest or weed control at 200 ppm in data set [1] is not below 80%. Moreover, the inhibition at 20 ppm in data set [2] was not below 80%. In addition, in data set [4], the pest or weed control at 200 ppm is not below 80%.

`[O-][S+](Cc1ccc(-c2noc(C(F)(F)F)n2)c(F)c1F)c1ccccc1` (centres unmarked) [Compound 2.31, 3-[4-(benzenesulfinylmethyl)-2,3-difluoro-phenyl]-5-(trifluoromethyl)-1,2,4-oxadiazole]: the melting point was in the range of 163 to 167 °C. Moreover, the inhibition at 20 ppm in data set [2] is not below 80%. In addition, in data set [3], the pest or weed control at 200 ppm is not below 80%. For the same compound, the pest or weed control at 200 ppm in data set [4] is not below 80%.

Consider `[O-][S+](Cc1c(F)cc(-c2noc(C(F)(F)F)n2)cc1F)c1ccccc1` (centres unmarked) [Compound 2.32, 3-[4-(benzenesulfinylmethyl)-3,5-difluoro-phenyl]-5-(trifluoromethyl)-1,2,4-oxadiazole], for which the melting point fell in the range of 120 to 125 °C. Further, in data set [1], the pest or weed control at 200 ppm is not below 80%. Moreover, in data set [2], the inhibition at 20 ppm is not below 80%. The pest or weed control at 200 ppm in data set [3] is not below 80%.

Compound `COc1ccc(S(=O)(=O)c2ccc(-c3noc(C(F)(F)F)n3)cc2)cc1` [Compound 3.2, 3-[4-(4-methoxyphenyl)sulfonylphenyl]-5-(trifluoromethyl)-1,2,4-oxadiazole] showed a melting point of 108 to 116 °C. Moreover, the inhibition at 20 ppm in data set [2] was not below 80%. For the same compound, the pest or weed control at 200 ppm in data set [3] was not below 80%. Also, the pest or weed control at 200 ppm in data set [4] is not below 80%.

As for `O=S(=O)(c1ccccc1)c1ccc(-c2noc(C(F)(F)F)n2)cn1` [Compound 3.7, 3-[6-(benzenesulfonyl)-3-pyridyl]-5-(trifluoromethyl)-1,2,4-oxadiazole], the melting point was 124 to 127 °C and 124 to 129 °C. In data set [2], the inhibition at 20 ppm is not below 80%. In data set [3], the pest or weed control at 200 ppm was not below 80%. The pest or weed control at 200 ppm in data set [4] was not below 80%.

`O=S(=O)(c1ccc(-c2noc(C(F)(F)F)n2)cc1)c1cccc(F)c1` [Compound 3.14, 3-[4-(3-fluorophenyl)sulfonylphenyl]-5-(trifluoromethyl)-1,2,4-oxadiazole] registered a melting point of 136 to 143 °C. The inhibition at 20 ppm in data set [2] is not below 80%. For the same compound, the pest or weed control at 200 ppm in data set [3] is not below 80%. In data set [4], the pest or weed control at 200 ppm is not below 80%.
